Target: T1, BTK (Homo sapiens, UniProt Q06187)
T1 construct: purified from insect cells as a full-length construct containing a N-terminal 6×-His tag; His6 (N); made in house; host or cells: insect cells (baculovirus, Sf21)
Test: Btk in vitro inhibitory activity / inhibition of a panel of kinases (TR-FRET, mobility shift or radiometric filter binding)
Assay type: biochemical
Details: kinase assay by one of methods A, B or C
Method: Btk kinase activity is determined using a time-resolved fluorescence resonance energy transfer (TR-FRET) methodology. Measurements are performed in a reaction volume of 50 μL using 96-well assay plates. Kinase enzyme, inhibitor, ATP (at the Km for the kinase), and 1 μM peptide substrate (Biotin-AVLESEEELYSSARQ-NH2) are incubated in a reaction buffer composed of 20 mM Tris, 50 mM NaCl, MgCl2 (5-25 mM depending on the kinase), MnCl2 (0-10 mM), 1 mM DTT, 0.1 mM EDTA, 0.01% bovine serum albumin, 0.005% Tween-20, and 10% DMSO at pH 7.4 for one hour. The reaction is quenched by the addition of 1.2 equivalents of EDTA (relative to divalent cation) in 25 μL of 1× Lance buffer (Perkin-Elmer). Streptavidin-APC (Perkin-Elmer) and Eu-labeled p-Tyr100 antibody (Perkin-Elmer) in 1× Lance buffer are added in a 25 μL volume to give final concentrations of 100 nM and 2.5 nM, respectively, and the mixture is allowed to incubate for one hour. The TR-FRET signal is measured on a multimode plate reader with an excitation wavelength (λEx) of 330 nm and detection wavelengths (λEm) of 615 and 665 nm. Activity is determined by the ratio of the fluorescence at 665 nm to that at 615 nm. For each compound, enzyme activity is measured at various concentrations of compound. Negative control reactions are performed in the absence of inhibitor in replicates of six, and two no-enzyme controls are used to determine baseline fluorescence levels. Inhibition constants, Ki(app), ware obtained using the program BatchKi (Kuzmic et al. (2000), Anal. Biochem. 286:45-50). IC50s are obtained according to the equation: IC50={Ki(app)/(1+[ATP]/Km^ATP)}+[E]total/2;
For all kinases, [ATP]=Km^ATP, [Btk]total=0.5 nM and [Lck]total=6 nM.
Kinase activity is measured in vitro using electrophoretic mobility shift assay. The kinase reactions are assembled in a total volume of 25 μL in 384 well plates. The reactions comprise: BTK enzyme (1 nM, N-terminal His6-tagged, recombinant, full-length, human BTK purified from baculovirus Sf21 insect cell system), inhibitor, ATP ([…] the apparent Km for the kinase), fluorescently labeled peptide substrate (1 μM, FAM-GEEPLYWSFPAKKK-NH2) in a reaction buffer composed of 100 mM HEPES, pH7.5, 5 mM MgCl2 1 mM DTT, 0.1% bovine serum albumin, 0.01% Triton X-100, and 1% DMSO. The reaction is incubated for one hour and is quenched by the addition of 45 μL of termination buffer (100 mM HEPES, pH7.5, 0.01% Triton X-100, 30 mM EDTA). The terminated reactions are analyzed using 12 channel LabChip® 3000 microfluidic detection instrument (Caliper Life Sciences). The enzymatic phosphorylation of the peptide results in a change in net charge, enabling electrophoretic separation of product from substrate peptide. As substrate and product peptides are separated, two peaks of fluorescence are observed. Change in the relative fluorescence intensity of the substrate and product peaks is the parameter measured, reflecting enzyme activity. In the presence of an inhibitor, the ratio between product and substrate is altered: the signal of the product decreases, while the signal of the substrate increases.
Activity in each sample is determined as the product to sum ratio (PSR):P/(S+P), where P is the peak height of the product peptide and S is the peak height of the substrate peptide. For each compound, enzyme activity is measured at various concentrations (12 concentrations of compound spaced by 3× dilution intervals). Negative control samples (0%-inhibition in the absence of inhibitor) and positive control samples (100%-inhibition, in the presence of 20 mM EDTA) are assembled in replicates of four and are used to calculate %-inhibition values for each inhibitor at each concentration. Percent inhibition (Pinh) is determined using following equation: […]

T1 sequence (Q06187 whole entry): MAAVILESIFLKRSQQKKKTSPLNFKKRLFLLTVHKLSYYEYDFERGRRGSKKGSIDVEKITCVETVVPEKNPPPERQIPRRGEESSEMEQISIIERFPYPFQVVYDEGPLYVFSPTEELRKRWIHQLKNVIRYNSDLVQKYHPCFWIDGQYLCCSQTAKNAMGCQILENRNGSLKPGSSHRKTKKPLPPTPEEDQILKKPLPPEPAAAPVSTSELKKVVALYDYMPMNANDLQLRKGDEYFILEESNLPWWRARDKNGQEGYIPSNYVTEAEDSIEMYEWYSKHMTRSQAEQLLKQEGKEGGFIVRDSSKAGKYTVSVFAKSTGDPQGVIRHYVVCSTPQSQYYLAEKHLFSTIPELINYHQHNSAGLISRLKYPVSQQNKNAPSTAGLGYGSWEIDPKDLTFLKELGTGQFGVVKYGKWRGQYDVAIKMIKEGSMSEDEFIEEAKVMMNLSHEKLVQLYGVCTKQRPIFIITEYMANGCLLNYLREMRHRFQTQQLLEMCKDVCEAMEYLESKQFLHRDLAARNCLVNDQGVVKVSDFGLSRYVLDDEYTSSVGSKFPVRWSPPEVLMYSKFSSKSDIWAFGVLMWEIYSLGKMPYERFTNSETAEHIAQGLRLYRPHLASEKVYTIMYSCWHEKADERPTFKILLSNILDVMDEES

| Compound | IC50 [µM] |
| --- | --- |
| CN(C(=O)/C=C/CN(C)C1CC1)c1ccc(-n2c(Cl)c(-c3ccc(Cl)cc3)c3c(N)ncnc32)cc1 [Compound 31, (E)-N-(4-(4-amino-6-chloro-5-(4-chlorophenyl)-7H-pyrrolo[2,3-d]pyrimidin-7-yl)phenyl)-4-(cyclopropyl(methyl)amino)-N-methylbut-2-enamide] | < 0.1 |
| Cc1c(-c2ccc(Cl)cc2)c2c(N)ncnc2n1-c1cccc(N(C)C(=O)/C=C/CN(C)C2CC2)c1 [Compound 48, (E)-N-(3-(4-amino-5-(4-chlorophenyl)-6-methyl-7H-pyrrolo[2,3-d]pyrimidin-7-yl)phenyl)-4-(cyclopropyl(methyl)amino)-N-methylbut-2-enamide] | < 0.1 |
| COCCN(C)C/C=C/C(=O)N1CC[C@@H](n2c(F)c(-c3ccc(Oc4ccccc4)cc3)c3c(N)ncnc32)C1 [Compound 49, (R,E)-1-(3-(4-amino-6-fluoro-5-(4-phenoxyphenyl)-7H-pyrrolo[2,3-d]pyrimidin-7-yl)pyrrolidin-1-yl)-4-((2-methoxyethyl)(methyl)amino)but-2-en-1-one] | < 0.1 |
| Cc1c(-c2ccc(Oc3cccc(F)c3)cc2)c2c(N)ncnc2n1[C@@H]1CCN(C(=O)/C=C/CN(C)C2CC2)C1 [Compound 53, (R,E)-1-(3-(4-amino-5-(4-(3-fluorophenoxyl)phenyl)-6-methyl-7H-pyrrolo[2,3-d]pyrimidin-7-yl)pyrrolidin-1-yl)-4-(cyclopropyl(methyl)amino)but-2-en-1-one] | < 0.1 |
| CN(C/C=C/C(=O)N1CC[C@@H](n2c(Cl)c(-c3ccc(Oc4ccccc4)cc3)c3c(N)ncnc32)C1)[C@H]1CCOC1 [Compound 56, (E)-1-((R)-3-(4-amino-6-chloro-5-(4-phenoxyphenyl)-7H-pyrrolo[2,3-d]pyrimidin-7-yl)pyrrolidin-1-yl)-4-(methyl((S)-tetrahydrofuran-3-yl)amino)but-2-en-1-one] | < 0.1 |
| CN(C/C=C/C(=O)N1CC[C@@H](n2c(Cl)c(-c3ccc(Oc4cccc(F)c4)cc3)c3c(N)ncnc32)C1)C1CC1 [Compound 60, (R,E)-1-(3-(4-amino-6-chloro-5-(4-(3-fluorophenoxy)phenyl)-7H-pyrrolo[2,3-d]pyrimidin-7-yl)pyrrolidin-1-yl)-4-(cyclopropyl(methyl)amino)but-2-en-1-one] | < 0.1 |
| COCCN(C)C/C=C/C(=O)N1CC[C@@H](n2c(C)c(-c3ccc(Oc4ccccc4)cc3)c3c(N)ncnc32)C1 [Compound 61, (R,E)-1-(3-(4-amino-6-methyl-5-(4-phenoxyphenyl)-7H-pyrrolo[2,3-d]pyrimidin-7-yl)pyrrolidin-1-yl)-4-((2-methoxyethyl)(methyl)amino)but-2-en-1-one] | < 0.1 |
| Cc1c(-c2ccc(Oc3ccccc3)cc2)c2c(N)ncnc2n1C1CCN(C(=O)/C=C/CN(C)C2CC2)CC1 [Compound 67, (E)-1-(4-(4-amino-6-methyl-5-(4-phenoxyphenyl)-7H-pyrrolo[2,3-d]pyrimidin-7-yl)piperidin-1-yl)-4-(cyclopropyl(methyl)amino)but-2-en-1-one] | < 0.1 |
| COCCN(C/C=C/C(=O)N1CC[C@@H](n2c(C)c(-c3ccc(Oc4ccccc4)cc3)c3c(N)ncnc32)C1)CCOC [Compound 79, (R,E)-1-(3-(4-amino-6-methyl-5-(4-phenoxyphenyl)-7H-pyrrolo[2,3-d]pyrimidin-7-yl)pyrrolidin-1-yl)-4-(bis(2-methoxyethyl)amino)but-2-en-1-one] | < 0.1 |
| Cc1c(-c2ccc(OCc3cnn[nH]3)cc2)c2c(N)ncnc2n1[C@@H]1CCN(C(=O)/C=C/CN(C)C2CC2)C1 [Compound 86, (R,E)-1-(3-(5-(4-((1H-1,2,3-triazol-5-yl)methoxy)phenyl)-4-amino-6-methyl-7H-pyrrolo[2,3-d]pyrimidin-7-yl)pyrrolidin-1-yl)-4-(cyclopropyl(methyl)amino)but-2-en-1-one] | < 0.1 |
| COc1c(-c2ccc(Oc3ccccc3)cc2)c2c(N)ncnc2n1[C@@H]1CCN(C(=O)/C=C/CN(C)C2CC2)C1 [Compound 89, (R,E)-1-(3-(4-amino-6-methoxy-5-(4-phenoxyphenyl)-7H-pyrrolo[2,3-d]pyrimidin-7-yl)pyrrolidin-1-yl)-4-(cyclopropyl(methyl)amino)but-2-en-1-one] | < 0.1 |

The remaining lines, values ahead:

| IC50 [µM] | Compound |
| --- | --- |
| < 0.1 | COCCN(C)C/C=C/C(=O)N1CC[C@@H](n2c(Cl)c(-c3ccc(Oc4ccccc4)cc3)c3c(N)ncnc32)C1 [Compound 55, (R,E)-1-(3-(4-amino-6-chloro-5-(4-phenoxyphenyl)-7H-pyrrolo[2,3-d]pyrimidin-7-yl)pyrrolidin-1-yl)-4-((2-methoxyethyl)(methyl)amino)but-2-en-1-one] |
| < 0.1 | CN(C/C=C/C(=O)N1CC[C@@H](n2c(Cl)c(-c3ccc(Oc4ccccc4)cc3)c3c(N)ncnc32)C1)[C@@H]1CCOC1 [Compound 57, (E)-1-((R)-3-(4-amino-6-chloro-5-(4-phenoxyphenyl)-7H-pyrrolo[2,3-d]pyrimidin-7-yl)pyrrolidin-1-yl)-4-(methyl((R)-tetrahydrofuran-3-yl)amino)but-2-en-1-one] |
| < 0.1 | Cc1c(-c2ccc(Oc3ccccc3)cc2)c2c(N)ncnc2n1[C@@H]1CCCN(C(=O)/C=C/CN(C)C2CC2)C1 [Compound 72, (R,E)-1-(3-(4-amino-6-methyl-5-(4-phenoxyphenyl)-7H-pyrrolo[2,3-d]pyrimidin-7-yl)piperidin-1-yl)-4-(cyclopropyl(methyl)amino)but-2-en-1-one] |
| < 0.1 | Cc1c(-c2ccc(Oc3cccc(F)c3)cc2)c2c(N)ncnc2n1[C@@H]1CCCN(C(=O)/C=C/CN(C)C2CC2)C1 [Compound 76, (R,E)-1-(3-(4-amino-5-(4-(3-fluorophenoxyl)phenyl)-6-methyl-7H-pyrrolo[2,3-d]pyrimidin-7-yl)piperidin-1-yl)-4-(cyclopropyl(methyl)amino)but-2-en-1-one] |
| < 0.1 | COc1c(-c2ccc(Oc3ccccc3)cc2)c2c(N)ncnc2n1[C@@H]1CCN(C(=O)/C=C/CN(C)C)C1 [Compound 88, (R,E)-1-(3-(4-amino-6-methoxy-5-(4-phenoxyphenyl)-7H-pyrrolo[2,3-d]pyrimidin-7-yl)pyrrolidin-1-yl)-4-(dimethylamino)but-2-en-1-one] |
| < 0.1 | COc1c(-c2ccc(Oc3cccc(F)c3)cc2)c2c(N)ncnc2n1[C@@H]1CCN(C(=O)/C=C/CN(C)C2CC2)C1 [Compound 92, (R,E)-1-(3-(4-amino-5-(4-(3-fluorophenoxyl)phenyl)-6-methoxy-7H-pyrrolo[2,3-d]pyrimidin-7-yl)pyrrolidin-1-yl)-4-(cyclopropyl(methyl)amino)but-2-en-1-one] |
| < 0.1 | CN(C/C=C/C(=O)N1CC[C@@H](n2c(C3CC3)c(-c3ccc(Oc4ccccc4)cc3)c3c(N)ncnc32)C1)C1CC1 [Compound 94, (R,E)-1-(3-(4-amino-6-cyclopropyl-5-(4-phenoxyphenyl)-7H-pyrrolo[2,3-d]pyrimidin-7-yl)pyrrolidin-1-yl)-4-(cyclopropyl(methyl)amino)but-2-en-1-one] |
| < 0.1 | CN(C/C=C/C(=O)N1CC[C@@H](n2c(C3CC3)c(-c3ccc(Oc4ccccc4)cc3)c3c(N)ncnc32)C1)[C@H]1CCOC1 [Compound 95, (E)-1-((R)-3-(4-amino-6-cyclopropyl-5-(4-phenoxyphenyl)-7H-pyrrolo[2,3-d]pyrimidin-7-yl)pyrrolidin-1-yl)-4-(methyl((S)-tetrahydrofuran-3-yl)amino)but-2-en-1-one] |
